According to the NIST ThermoML archive (doi:10.1016/j.tca.2016.05.001):
Where “and” joins values, the source holds several entries; their conditions need not be identical. Identical values can stand only once. Numbers after ± are expanded uncertainties.

How the values were obtained:
[1] = Molar enthalpy of transition or fusion; conditions: Crystal; DSC

## c1ccc2c(c1)cnc1ccccc12 [phenanthridine]
318.6 K, Crystal, Torsion effusion method
  vapor or sublimation pressure: 3.8e-05 ± 1.3e-05 kPa
322.1 K, Crystal, Torsion effusion method
  vapor or sublimation pressure: 5.7e-05 ± 1.9e-05 kPa
323.2 K, Crystal, Torsion effusion method
  vapor or sublimation pressure: 7.6e-05 ± 2.4e-05 kPa
324 K, Crystal, Torsion effusion method
  vapor or sublimation pressure: 7.6e-05 ± 2.2e-05 kPa
325 K, Crystal, Torsion effusion method
  vapor or sublimation pressure: 8.5e-05 ± 3e-05 kPa
325.2 K, Crystal, Torsion effusion method
  vapor or sublimation pressure: 9.4e-05 ± 3.1e-05 kPa
325.9 K, Crystal, Torsion effusion method
  vapor or sublimation pressure: 0.000104 ± 2.9e-05 kPa
327 K, Crystal, Torsion effusion method
  vapor or sublimation pressure: 0.000104 ± 3.1e-05 kPa
327.6 K, Crystal, Torsion effusion method
  vapor or sublimation pressure: 0.000124 ± 3.2e-05 kPa
329.1 K, Crystal, Torsion effusion method
  vapor or sublimation pressure: 0.000133 ± 4.5e-05 kPa
329.3 K, Crystal, Torsion effusion method
  vapor or sublimation pressure: 0.000151 ± 4.7e-05 kPa
330 K, Crystal, Torsion effusion method
  vapor or sublimation pressure: 0.000142 ± 4.4e-05 kPa
330.9 K, Crystal, Torsion effusion method
  vapor or sublimation pressure: 0.000181 ± 5.4e-05 kPa
331.9 K, Crystal, Torsion effusion method
  vapor or sublimation pressure: 0.00019 ± 5.1e-05 kPa
332.6 K, Crystal, Torsion effusion method
  vapor or sublimation pressure: 0.000208 ± 6.3e-05 kPa
332.9 K, Crystal, Torsion effusion method
  vapor or sublimation pressure: 0.000228 ± 6.7e-05 kPa
333.9 K, Crystal, Torsion effusion method
  vapor or sublimation pressure: 0.00025 ± 7e-05 kPa
334.1 K, Crystal, Torsion effusion method
  vapor or sublimation pressure: 0.00023 ± 8e-05 kPa
334.7 K, Crystal, Torsion effusion method
  vapor or sublimation pressure: 0.00025 ± 8e-05 kPa
335 K, Crystal, Torsion effusion method
  vapor or sublimation pressure: 0.00026 ± 8e-05 kPa
335.7 K, Crystal, Torsion effusion method
  vapor or sublimation pressure: 0.0003 ± 9e-05 kPa
335.9 K, Crystal, Torsion effusion method
  vapor or sublimation pressure: 0.00028 ± 7e-05 kPa
337 K, Crystal, Torsion effusion method
  vapor or sublimation pressure: 0.00034 ± 0.0001 kPa
337.9 K, Crystal, Torsion effusion method
  vapor or sublimation pressure: 0.00038 ± 0.0001 kPa
338.4 K, Crystal, Torsion effusion method
  vapor or sublimation pressure: 0.00036 ± 0.00012 kPa
339.8 K, Crystal, Torsion effusion method
  vapor or sublimation pressure: 0.00045 ± 0.00014 kPa
340 K, Crystal, Torsion effusion method
  vapor or sublimation pressure: 0.00044 ± 0.00014 kPa and 0.00047 ± 0.00014 kPa
341.4 K, Crystal, Torsion effusion method
  vapor or sublimation pressure: 0.00053 ± 0.00018 kPa
341.5 K, Crystal, Torsion effusion method
  vapor or sublimation pressure: 0.00055 ± 0.00018 kPa
342.2 K, Crystal, Torsion effusion method
  vapor or sublimation pressure: 0.00061 ± 0.0002 kPa
342.9 K, Crystal, Torsion effusion method
  vapor or sublimation pressure: 0.00061 ± 0.0002 kPa
343.2 K, Crystal, Torsion effusion method
  vapor or sublimation pressure: 0.00072 ± 0.00021 kPa
345.3 K, Crystal, Torsion effusion method
  vapor or sublimation pressure: 0.00085 ± 0.00025 kPa
345.5 K, Crystal, Torsion effusion method
  vapor or sublimation pressure: 0.00079 ± 0.00024 kPa
347.1 K, Crystal, Torsion effusion method
  vapor or sublimation pressure: 0.001 ± 0.00027 kPa
347.3 K, Crystal, Torsion effusion method
  vapor or sublimation pressure: 0.00093 ± 0.00025 kPa
348.2 K, Crystal, Torsion effusion method
  vapor or sublimation pressure: 0.00115 ± 0.00035 kPa
349.4 K, Crystal, Torsion effusion method
  vapor or sublimation pressure: 0.00128 ± 0.00042 kPa
388.1 K, Liquid, Rate of evaporation
  vapor or sublimation pressure: 0.038 ± 0.015 kPa
393.1 K, Liquid, Rate of evaporation
  vapor or sublimation pressure: 0.05 ± 0.02 kPa
398.1 K, Liquid, Rate of evaporation
  vapor or sublimation pressure: 0.065 ± 0.026 kPa
403.1 K, Liquid, Rate of evaporation
  vapor or sublimation pressure: 0.086 ± 0.035 kPa
408.1 K, Liquid, Rate of evaporation
  vapor or sublimation pressure: 0.113 ± 0.046 kPa
413.1 K, Liquid, Rate of evaporation
  vapor or sublimation pressure: 0.145 ± 0.059 kPa
418.1 K, Liquid, Rate of evaporation
  vapor or sublimation pressure: 0.187 ± 0.076 kPa
423.1 K, Liquid, Rate of evaporation
  vapor or sublimation pressure: 0.24 ± 0.098 kPa
428.1 K, Liquid, Rate of evaporation
  vapor or sublimation pressure: 0.302 ± 0.12 kPa
433.1 K, Liquid, Rate of evaporation
  vapor or sublimation pressure: 0.369 ± 0.15 kPa
438.1 K, Liquid, Rate of evaporation
  vapor or sublimation pressure: 0.469 ± 0.19 kPa
443.1 K, Liquid, Rate of evaporation
  vapor or sublimation pressure: 0.567 ± 0.23 kPa
448.1 K, Liquid, Rate of evaporation
  vapor or sublimation pressure: 0.728 ± 0.3 kPa
453.1 K, Liquid, Rate of evaporation
  vapor or sublimation pressure: 0.854 ± 0.35 kPa
Crystal, DSC
  Triple point temperature: 379.1 ± 2.1 K
[1]
  Molar enthalpy of transition or fusion: 5.93 ± 0.502 kcal/mol
